Experiment: xn = mol fraction of the nth substance listed
Settings: 101.33 kPa

CC(N)CN (stereo not given) + OCCCCO
viscosity [mPa·s]
Settings | 293.15 K | 298.15 K | 303.15 K | 308.15 K | 313.15 K | 318.15 K
x2 = 0.0415 | 2.17 | 1.92 | 1.66 | 1.48 | 1.3 | 1.21
x2 = 0.0837 | 2.83 | 2.5 | 2.1 | 1.86 | 1.63 | 1.54
x2 = 0.1267 | 3.76 | 3.28 | 2.72 | 2.37 | 2.07 | 1.91
x2 = 0.1705 | 5.08 | 4.37 | 3.59 | 3.08 | 2.65 | 2.44
x2 = 0.2152 | 6.86 | 5.84 | 4.71 | 4.02 | 3.41 | 3.11
x2 = 0.2606 | 8.9 | 7.88 | 6.27 | 5.26 | 4.42 | –
x2 = 0.3069 | 13.32 | 10.91 | 8.54 | 7.05 | 5.85 | –
x2 = 0.3541 | 18.39 | 14.82 | 11.39 | 9.32 | 7.62 | –
x2 = 0.4022 | 25.44 | 20.09 | 15.23 | 12.31 | 9.87 | –
x2 = 0.4513 | 34.76 | 27.12 | 20.33 | 16.17 | 13.1 | –
x2 = 0.5013 | 47.13 | 36.26 | 26.83 | 21.01 | 16.42 | –
x2 = 0.5523 | 61.72 | 47.01 | 34.44 | 26.7 | 20.75 | –
x2 = 0.6043 | 75.89 | 57.65 | 42 | 32.37 | 25.02 | –
x2 = 0.6574 | 90.68 | 69.04 | 50.16 | 38.64 | 29.82 | –
x2 = 0.7116 | 99.83 | 76.3 | 55.75 | 42.89 | 33.12 | –
x2 = 0.7669 | 106 | 81.64 | 60.1 | 46.57 | 36.08 | –
x2 = 0.8233 | 107.2 | 83.62 | 61.98 | 48.39 | 37.8 | –
x2 = 0.881 | 104.3 | 82.14 | 61.43 | 48.46 | 38.15 | –
x2 = 0.9399 | 98.79 | 78.35 | 59.29 | 47.22 | 37.43 | –
